Results: ChEMBL document CHEMBL1201862, “PubChem BioAssay data set” (2004)
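In this assay, cells in 96-well plates receive the compound at five concentrations for 48 hours. Endpoints are linearly interpolated between the surrounding concentrations. The concentration for 50% growth inhibition is given as GI50.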 Calls of active or inactive are those of the source. No stated cut-off is given here; in the data, active = GI50 up to about 1.1 µM and inactive = higher.

Assays:
Experiment in all cases: DTP human tumour cell line panel, 48 h
HT-29 = test system: HT-29
KM12 = test system: KM12
COLO 205 = test system: COLO 205
RPMI-8226 = test system: RPMI-8226
KM-20L2 = test system: KM-20L2
IGROV-1 = test system: IGROV-1
DLD-1 = test system: DLD-1
786-0 = test system: 786-0
TK-10 = test system: TK-10
M14 = test system: M14
A498 = test system: A498
RXF 393 = test system: RXF 393
SNB-78 = test system: SNB-78
M19-MEL = test system: M19-MEL
A549 = test system: A549
UACC-62 = test system: UACC-62
OVCAR-5 = test system: OVCAR-5
OVCAR-8 = test system: OVCAR-8
SF-295 = test system: SF-295
LXFL 529 = test system: LXFL 529
HOP-62 = test system: HOP-62
ACHN = test system: ACHN
CCRF-CEM = test system: CCRF-CEM
DMS-114 = test system: DMS-114
SK-MEL-28 = test system: SK-MEL-28
UACC-257 = test system: UACC-257
SR = test system: SR
UO-31 = test system: UO-31
SK-MEL-5 = test system: SK-MEL-5
HCT-116 = test system: HCT-116
EKVX = test system: EKVX
SF-268 = test system: SF-268
SF-539 = test system: SF-539
K562 = test system: K562
OVCAR-4 = test system: OVCAR-4
MOLT-4 = test system: MOLT-4
Malme-3M = test system: Malme-3M
DMS-273 = test system: DMS-273
NCI-H23 = test system: NCI-H23
SN12C = test system: SN12C
NCI-H522 = test system: NCI-H522
SK-MEL-2 = test system: SK-MEL-2
NCI-H460 = test system: NCI-H460
LOX IMVI = test system: LOX IMVI
HOP-18 = test system: HOP-18
OVCAR-3 = test system: OVCAR-3
U-251 = test system: U-251
HCT-15 = test system: HCT-15
SNB-19 = test system: SNB-19
HL-60 = test system: HL-60
SW-620 = test system: SW-620
SNB-75 = test system: SNB-75
HCC 2998 = test system: HCC 2998
NCI-H226 = test system: NCI-H226
SK-OV-3 = test system: SK-OV-3
HOP-92 = test system: HOP-92
DU-145 = test system: DU-145
PC-3 = test system: PC-3
MDA-N = test system: MDA-N
NCI/ADR-RES = test system: NCI/ADR-RES
CAKI-1 = test system: CAKI-1
Hs-578T = test system: Hs-578T
MDA-MB-435 = test system: MDA-MB-435
T47D = test system: T47D
MCF7 = test system: MCF7
BT-549 = test system: BT-549
MDA-MB-231 = test system: MDA-MB-231

Measured: GI50

O=C1/C(=C/c2ccccc2)CN(C(=O)C(Cl)(Cl)Cl)C/C1=C\c1ccccc1
inactive: HT-29 1.23 µM | KM12 1.29 µM | COLO 205 2.25 µM | KM-20L2 2.16 µM | IGROV-1 2.06 µM | DLD-1 1.96 µM | 786-0 2.89 µM | TK-10 2.57 µM | M14 1.26 µM | A498 4.24 µM | RXF 393 1.89 µM | SNB-78 2.72 µM | M19-MEL 1.33 µM | A549 13.9 µM | UACC-62 1.68 µM | OVCAR-5 2.51 µM | OVCAR-8 1.73 µM | SF-295 1.82 µM | LXFL 529 1.59 µM | HOP-62 > 10 µM | ACHN 2.01 µM | DMS-114 1.6 µM | SK-MEL-28 1.73 µM | UACC-257 1.58 µM | SR 1.85 µM | UO-31 2.59 µM | SK-MEL-5 1.15 µM | EKVX 9.23 µM | SF-268 3.33 µM | SF-539 3.12 µM | OVCAR-4 1.73 µM | MOLT-4 1.36 µM | Malme-3M 2.11 µM | NCI-H23 2.37 µM | SN12C 1.72 µM | NCI-H522 2.13 µM | SK-MEL-2 2.91 µM | NCI-H460 2.08 µM | HOP-18 2.96 µM | OVCAR-3 2.86 µM | U-251 1.64 µM | SNB-19 2.82 µM | SNB-75 3.27 µM
active: RPMI-8226 0.0348 µM | CCRF-CEM 0.551 µM | HCT-116 0.356 µM | K562 0.43 µM | DMS-273 1.06 µM | LOX IMVI 0.94 µM | HL-60 0.159 µM | SW-620 0.546 µM
1.68 µM: HCT-15

CC(N)CC(=O)O (stereo not given)
inactive: HT-29 > 5000 µM | KM12 > 5000 µM | COLO 205 > 5000 µM | RPMI-8226 > 5000 µM | KM-20L2 > 5000 µM | IGROV-1 > 5000 µM | DLD-1 > 5000 µM | 786-0 > 5000 µM | TK-10 > 5000 µM | M14 > 5000 µM | A498 > 5000 µM | RXF 393 > 5000 µM | SNB-78 > 5000 µM | M19-MEL > 5000 µM | A549 2850 µM | UACC-62 > 5000 µM | OVCAR-5 > 5000 µM | SF-295 > 5000 µM | LXFL 529 > 5000 µM | HCC 2998 > 5000 µM | ACHN > 5000 µM | CCRF-CEM > 5000 µM | DMS-114 > 5000 µM | SK-MEL-28 > 5000 µM | NCI-H226 > 5000 µM | SK-OV-3 > 5000 µM | UACC-257 > 5000 µM | SR > 5000 µM | UO-31 > 5000 µM | HOP-92 > 5000 µM | SK-MEL-5 > 5000 µM | HCT-116 > 5000 µM | EKVX > 5000 µM | SF-268 > 5000 µM | SF-539 > 5000 µM | K562 > 5000 µM | OVCAR-4 > 5000 µM | MOLT-4 > 5000 µM | Malme-3M > 5000 µM | DMS-273 > 5000 µM | NCI-H23 > 5000 µM | SN12C > 5000 µM | NCI-H522 > 5000 µM | SK-MEL-2 > 5000 µM | NCI-H460 > 5000 µM | HOP-18 > 5000 µM | OVCAR-3 > 5000 µM | U-251 > 5000 µM | HL-60 > 5000 µM | SW-620 > 5000 µM | SNB-75 > 5000 µM
> 5000 µM: HCT-15

CC(=O)[O-].[Zn+].c1ccc(/C(=N\Nc2ccccn2)c2ccccn2)cc1
0.0137 µM: HCT-15
active: HT-29 0.01 µM | KM12 0.356 µM | COLO 205 0.00028 µM | RPMI-8226 0.01 µM | KM-20L2 0.01 µM | IGROV-1 0.0374 µM | DLD-1 0.0231 µM | DU-145 0.458 µM | 786-0 0.137 µM | TK-10 0.44 µM | PC-3 0.03 µM | M14 0.0813 µM | RXF 393 0.3 µM | M19-MEL 0.394 µM | A549 0.344 µM | UACC-62 0.182 µM | OVCAR-5 0.025 µM | OVCAR-8 0.0519 µM | SF-295 0.348 µM | MDA-N 0.426 µM | LXFL 529 0.0429 µM | HCC 2998 0.71 µM | HOP-62 0.269 µM | ACHN 0.0653 µM | CCRF-CEM 0.00277 µM | DMS-114 0.01 µM | NCI/ADR-RES 0.0303 µM | SK-MEL-28 0.255 µM | CAKI-1 0.119 µM | NCI-H226 0.0929 µM | SK-OV-3 0.0615 µM | UACC-257 0.08 µM | UO-31 0.253 µM | HOP-92 0.381 µM | SK-MEL-5 0.0684 µM | Hs-578T 0.931 µM | HCT-116 0.005 µM | EKVX 0.00629 µM | SF-268 0.277 µM | SF-539 0.337 µM | K562 0.00535 µM | OVCAR-4 0.603 µM | MOLT-4 0.000773 µM | Malme-3M 0.124 µM | DMS-273 0.309 µM | NCI-H23 0.0155 µM | SN12C 0.0424 µM | NCI-H522 0.165 µM | MDA-MB-435 0.408 µM | NCI-H460 0.31 µM | T47D 0.00206 µM | LOX IMVI 0.264 µM | HOP-18 0.247 µM | OVCAR-3 0.0015 µM | U-251 0.281 µM | SNB-19 1.06 µM | MCF7 0.000912 µM | HL-60 0.00121 µM | SW-620 0.0676 µM | SNB-75 0.914 µM
inactive: A498 1.74 µM | SNB-78 2.38 µM | SK-MEL-2 1.33 µM

Cc1c2cc[n+](C)cc2c(C)c2c1[nH]c1ccc(Cl)cc12
active: KM12 0.897 µM | COLO 205 0.494 µM | IGROV-1 1.02 µM | DLD-1 1.05 µM | 786-0 0.232 µM | PC-3 0.918 µM | A498 0.282 µM | SNB-78 0.288 µM | M19-MEL 0.993 µM | A549 0.197 µM | OVCAR-8 0.298 µM | SF-295 0.374 µM | LXFL 529 0.286 µM | HOP-62 0.631 µM | CCRF-CEM 0.802 µM | DMS-114 0.341 µM | NCI-H226 0.272 µM | SK-MEL-5 1.09 µM | Hs-578T 0.295 µM | HCT-116 0.881 µM | EKVX 0.536 µM | SF-268 0.29 µM | SF-539 0.401 µM | NCI-H23 0.843 µM | SN12C 0.214 µM | NCI-H522 0.617 µM | T47D 1.09 µM | U-251 0.25 µM | SNB-19 0.274 µM | SW-620 0.176 µM | SNB-75 0.242 µM
inactive: HT-29 3.34 µM | RPMI-8226 25 µM | KM-20L2 2.58 µM | DU-145 2.3 µM | TK-10 6.95 µM | M14 5.57 µM | RXF 393 1.18 µM | UACC-62 3.98 µM | OVCAR-5 8.32 µM | MDA-N 7.11 µM | HCC 2998 1.63 µM | ACHN 3.78 µM | NCI/ADR-RES 2.96 µM | SK-MEL-28 2.92 µM | CAKI-1 1.85 µM | SK-OV-3 1.2 µM | UACC-257 8.38 µM | SR 5.32 µM | UO-31 1.51 µM | HOP-92 2.96 µM | BT-549 1.26 µM | MDA-MB-231 4.41 µM | K562 2.21 µM | OVCAR-4 3.28 µM | MOLT-4 2.31 µM | Malme-3M 1.74 µM | DMS-273 1.76 µM | SK-MEL-2 2.25 µM | MDA-MB-435 5.98 µM | NCI-H460 4.81 µM | LOX IMVI 4.67 µM | HOP-18 3.78 µM | OVCAR-3 2.07 µM | MCF7 2.59 µM | HL-60 1.94 µM
5.87 µM: HCT-15
